Source: publication PMC5615911 (Toxicology Reports, 2016)
Entries after “also recorded” stand apart in the source; their conditions may differ.

Columns and labels:
[1] = tested on: Chinese hamster ovary cells (CHO-WBL); test: In vitro micronucleus test; format: cell-based
[2] = In vivo metabolism of S3643, single oral dose 100 mg/kg bw; parameters: species or system Sprague-Dawley rats
[3] = tested on: Primary human lymphocytes; test: In vitro chromosome aberration test
[4] = tested on: GPCRs, ion channels, nuclear receptors, transporters; test: Receptor lead profiling panel; conditions: 10 μM
[5] = 90-day subchronic toxicity study; format: in vivo, Sprague-Dawley rats
[6] = tested on: S. typhimurium strains TA98, TA100, TA1535, TA1537; test: Bacterial reverse mutation test; format: cell-based
hERG = hERG (Homo sapiens, UniProt Q12809); test: hERG electrophysiology
[7] = 28-day dose-range finding toxicity study; format: in vivo, Sprague-Dawley rats; conditions: 10, 30, 100 mg/kg bw/day (food ad-mix)
CYP2C19 = CYP2C19 (Homo sapiens, UniProt P33261); test: CYP inhibition, LC–MS/MS assay in human liver microsomes; conditions: probe S-mephenytoin
human umami receptor = conditions: cited from earlier work
CYP1A2 = target: T1, CYP1A2 (Homo sapiens, UniProt P05177); test: CYP inhibition, LC–MS/MS assay in human liver microsomes
T1 sequence (P05177 1-516): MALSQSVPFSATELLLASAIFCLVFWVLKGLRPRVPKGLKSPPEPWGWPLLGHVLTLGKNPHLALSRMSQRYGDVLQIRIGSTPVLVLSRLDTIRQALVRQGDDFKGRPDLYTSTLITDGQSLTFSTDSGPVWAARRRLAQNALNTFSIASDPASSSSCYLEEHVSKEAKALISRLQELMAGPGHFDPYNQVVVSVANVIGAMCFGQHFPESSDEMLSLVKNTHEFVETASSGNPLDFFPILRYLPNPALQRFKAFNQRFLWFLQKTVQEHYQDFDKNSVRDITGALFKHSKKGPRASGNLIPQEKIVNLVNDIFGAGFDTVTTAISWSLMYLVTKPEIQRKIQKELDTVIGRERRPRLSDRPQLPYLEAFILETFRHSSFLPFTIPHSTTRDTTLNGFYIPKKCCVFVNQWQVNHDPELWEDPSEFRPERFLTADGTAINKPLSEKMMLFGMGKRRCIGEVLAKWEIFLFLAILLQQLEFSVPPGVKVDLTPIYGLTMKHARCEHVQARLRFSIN

[8] = In vitro metabolism, human liver microsomes; format: in vitro ADME; conditions: 60 min, 10 μM S3643, relative to S3643 peak area at time 0
CYP2C9 = CYP2C9 (Homo sapiens, UniProt P11712); test: CYP inhibition, LC–MS/MS assay in human liver microsomes; conditions: probe tolbutamide
CYP3A4 = CYP3A4 (Homo sapiens, UniProt P08684); test: as above; conditions: for inhibition at 10 µM: human, human liver microsomes
[9] = both, Sprague-Dawley, rat, plasma, oral, 100 mg/kg bw
[10] = rat plasma at 1 h, males and females combined
[11] = 10, 30, 100 mg/kg bw/day (food ad-mix)

Sequence of CYP3A4 (P08684 whole entry): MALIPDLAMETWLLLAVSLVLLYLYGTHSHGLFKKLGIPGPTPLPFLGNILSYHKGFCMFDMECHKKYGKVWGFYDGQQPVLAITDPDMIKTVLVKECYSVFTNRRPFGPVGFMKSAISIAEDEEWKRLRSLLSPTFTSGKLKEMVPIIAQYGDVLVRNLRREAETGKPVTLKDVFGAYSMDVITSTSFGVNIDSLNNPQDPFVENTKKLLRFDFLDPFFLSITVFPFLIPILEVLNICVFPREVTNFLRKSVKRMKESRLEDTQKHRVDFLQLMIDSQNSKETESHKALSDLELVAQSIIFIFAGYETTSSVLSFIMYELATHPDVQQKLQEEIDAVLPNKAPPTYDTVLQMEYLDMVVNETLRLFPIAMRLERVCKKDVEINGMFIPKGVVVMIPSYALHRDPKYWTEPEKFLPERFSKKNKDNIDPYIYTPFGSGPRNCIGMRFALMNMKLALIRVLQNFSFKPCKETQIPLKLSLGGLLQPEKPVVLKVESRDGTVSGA
Sequence of CYP2C9 (P11712 whole entry): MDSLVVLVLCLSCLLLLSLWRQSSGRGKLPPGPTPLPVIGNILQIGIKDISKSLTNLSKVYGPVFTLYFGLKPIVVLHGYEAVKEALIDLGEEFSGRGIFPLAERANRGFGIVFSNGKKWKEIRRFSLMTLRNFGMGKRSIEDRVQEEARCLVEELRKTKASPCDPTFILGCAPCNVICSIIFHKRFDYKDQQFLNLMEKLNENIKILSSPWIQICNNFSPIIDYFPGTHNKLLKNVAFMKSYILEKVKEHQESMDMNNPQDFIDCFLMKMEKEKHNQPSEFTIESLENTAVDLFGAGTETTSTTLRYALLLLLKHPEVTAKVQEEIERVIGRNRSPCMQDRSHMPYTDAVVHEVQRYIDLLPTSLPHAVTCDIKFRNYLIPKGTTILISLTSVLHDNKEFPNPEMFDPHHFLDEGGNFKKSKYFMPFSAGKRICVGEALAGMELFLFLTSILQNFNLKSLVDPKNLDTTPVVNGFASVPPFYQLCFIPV
Sequence of hERG (Q12809 whole entry): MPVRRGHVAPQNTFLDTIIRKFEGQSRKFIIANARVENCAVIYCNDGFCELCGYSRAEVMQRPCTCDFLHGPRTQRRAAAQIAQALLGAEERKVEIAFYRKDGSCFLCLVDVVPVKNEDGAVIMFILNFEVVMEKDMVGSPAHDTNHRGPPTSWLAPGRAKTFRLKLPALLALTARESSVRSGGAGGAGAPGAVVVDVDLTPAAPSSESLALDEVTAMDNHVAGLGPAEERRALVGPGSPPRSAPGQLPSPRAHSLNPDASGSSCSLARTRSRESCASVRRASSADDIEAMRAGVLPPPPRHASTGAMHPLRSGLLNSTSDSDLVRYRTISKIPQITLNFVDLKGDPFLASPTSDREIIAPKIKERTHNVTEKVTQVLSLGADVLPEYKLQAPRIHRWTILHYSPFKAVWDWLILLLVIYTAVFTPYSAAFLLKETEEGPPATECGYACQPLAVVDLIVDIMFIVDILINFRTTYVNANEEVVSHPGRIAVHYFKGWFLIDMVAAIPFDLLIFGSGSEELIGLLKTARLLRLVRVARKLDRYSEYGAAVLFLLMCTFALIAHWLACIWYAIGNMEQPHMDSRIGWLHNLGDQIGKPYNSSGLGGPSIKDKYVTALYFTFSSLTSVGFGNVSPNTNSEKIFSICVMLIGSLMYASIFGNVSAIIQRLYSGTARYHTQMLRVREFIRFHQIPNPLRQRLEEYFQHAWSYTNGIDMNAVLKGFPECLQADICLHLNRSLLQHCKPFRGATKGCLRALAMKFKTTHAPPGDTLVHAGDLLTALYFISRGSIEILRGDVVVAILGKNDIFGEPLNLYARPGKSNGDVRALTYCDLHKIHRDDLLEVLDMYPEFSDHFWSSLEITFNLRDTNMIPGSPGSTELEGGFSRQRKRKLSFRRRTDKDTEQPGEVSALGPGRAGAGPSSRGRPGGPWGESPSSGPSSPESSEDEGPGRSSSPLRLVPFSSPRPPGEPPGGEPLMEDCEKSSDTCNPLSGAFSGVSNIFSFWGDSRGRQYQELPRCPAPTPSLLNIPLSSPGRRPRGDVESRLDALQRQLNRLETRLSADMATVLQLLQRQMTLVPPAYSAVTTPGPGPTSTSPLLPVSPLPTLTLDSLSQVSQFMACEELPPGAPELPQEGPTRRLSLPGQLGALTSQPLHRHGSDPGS
Sequence of CYP2C19 (P33261 whole entry): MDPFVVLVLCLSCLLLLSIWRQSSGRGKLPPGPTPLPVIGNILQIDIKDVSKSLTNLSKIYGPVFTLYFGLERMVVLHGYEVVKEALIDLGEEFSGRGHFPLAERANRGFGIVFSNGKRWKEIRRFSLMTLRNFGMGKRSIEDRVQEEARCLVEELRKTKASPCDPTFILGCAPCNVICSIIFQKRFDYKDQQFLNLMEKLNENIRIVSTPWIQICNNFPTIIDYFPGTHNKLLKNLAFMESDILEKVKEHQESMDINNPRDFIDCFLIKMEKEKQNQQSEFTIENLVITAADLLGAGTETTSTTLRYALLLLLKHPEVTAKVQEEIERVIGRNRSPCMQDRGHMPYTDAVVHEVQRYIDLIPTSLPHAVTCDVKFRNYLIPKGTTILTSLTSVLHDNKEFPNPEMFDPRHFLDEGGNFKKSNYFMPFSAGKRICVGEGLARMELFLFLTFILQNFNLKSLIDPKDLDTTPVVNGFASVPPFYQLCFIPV

## COc1cccc(-c2n[nH]c(SCc3ccccn3)n2)c1OC [S3643, 2-(((3-(2,3-dimethoxyphenyl)-1H-1,2,4-triazol-5-yl)thio)methyl)pyridine]
[1]; 16–63 μg/mL, 19 h exposure, −S9
  Micronucleus formation (in vitro), result: Negative
[1]; 50–200 μg/mL, 3 h exposure, +S9
  Micronucleus formation (in vitro), result: Negative
[1]; 100–300 μg/mL, 3 h exposure, −S9
  Micronucleus formation (in vitro), result: Negative
[1]; 3 h, +S9, 50 μg/mL
  % cells in cytostasis: −1%
[1]; 3 h, +S9, 100 μg/mL
  % cells in cytostasis: −2%
[1]; 3 h, −S9, 100 μg/mL
  % cells in cytostasis: 1%
[1]; 3 h, −S9, 200 μg/mL
  % cells in cytostasis: 0%
[1]; 3 h, −S9, 300 μg/mL
  % cells in cytostasis: 25%
[1]; 3 h, −S9, 450 μg/mL
  % cells in cytostasis: 93%
[1]; 19 h, −S9, 16 μg/mL
  % cells in cytostasis: 10%
[1]; 19 h, −S9, 63 μg/mL
  % cells in cytostasis: 50%
[1]; 19 h, −S9, 130 μg/mL
  % cells in cytostasis: 93%
[1]; all conditions
  Induction of micronuclei, conclusion: did not induce micronuclei
[2]; [9]
  concentration at 0.25 h: 86000 ng/mL
  concentration at 0.5 h: 81400 ng/mL
  concentration at 1 h: 55900 ng/mL
  concentration at 2 h: 29200 ng/mL
  concentration at 4 h: 14100 ng/mL
  concentration at 8 h: 4830 ng/mL
  concentration at 24 h: 63 ng/mL
[2]; [10]
  % Peak Area: 55.52%
  Peak Area (×10^6): 69.9
[3]; 63–250 μg/mL, 3 h exposure, +S9
  Chromosome aberration (in vitro), result: Negative
[3]; 63–250 μg/mL, 20 h exposure, −S9
  Chromosome aberration (in vitro), result: Negative
[3]; 130–500 μg/mL, 3 h exposure, −S9
  Chromosome aberration (in vitro), result: Negative
[3]; non-activated and S9-activated
  Induction of structural and numerical chromosome aberrations, conclusion: negative
[4]
  Significant responses (≥50% inhibition or stimulation): No significant responses; also recorded: No other significant off-target activities
[5]; [11]
  Findings, adverse effects: No adverse test-article related findings
  Findings, body weight: Lower body weight gain in females at 100 mg/kg/day
[5]; 90 days in diet, male and female rats, highest dose tested
  NOAEL: 100 mg/kg bw/day
[5]; females, 100 mg/kg bw/day, beginning at Week 5
  Mean body weight lower than controls: 7%
[5]; males, 100 mg/kg bw/day
  Absolute liver weight increase vs control: 12.5%
  Liver/body weight increase vs control: 14.1%
  Liver/brain weight increase vs control: 13.5%
[5]; rat, in vivo
  Margin of safety (NOAEL vs per capita intake 5 μg/kg bw/day): > 20,000 fold
[6]; 63–1000 μg/plate, preincubation, +S9
  Reverse mutation (in vitro), result: Negative
[6]; 130–2000 μg/plate, plate incorporation, ±S9
  Reverse mutation (in vitro), result: Negative
[6]; 130–2000 μg/plate, preincubation, −S9
  Reverse mutation (in vitro), result: Negative
[6]; absence and presence of metabolic activation
  Mutagenicity, conclusion: not mutagenic
hERG
  inhibition at 10 µM: < 10%
[7]
  Findings: No test-article related findings
CYP2C19
  inhibition at 10 µM: 13%
Human umami receptor
  Concentration lower than MSG for equivalent umami flavour effect: 1000 fold
CYP1A2
  IC50: > 10 µM
CYP1A2; human, human liver microsomes, probe phenacetin
  inhibition at 10 µM: 43%
[8]
  % MS Peak Area, Human: 54.9%
CYP2C9
  inhibition at 10 µM: 8%
CYP3A4
  IC50: > 10 µM
  inhibition at 10 µM: < 50%
CYP3A4; probe midazolam
  inhibition at 10 µM: 30%
